Measurements from patent publication US20240108602A1, “TREATMENT OF MENTAL DISORDERS” (GH Research Ireland Limited, priority 2022, published 2024).

Tested on: patients with postpartum depression (PPD)
Assay: Clinical trial of inhaled 5-MeO-DMT (IDR) in patients with postpartum depression
Protocol: The single-arm, open-label clinical trial will involve 15 adult female patients with clinically diagnosed postpartum depression (PPD).
The second dose (12 mg) will only be administered if: • a. A peak experience (total score of ≥75) has not been achieved following the 6 mg dose, and • b. The 6 mg dose was safe and well-tolerated according to the investigator, • c. Any psychoactive effects (PsE) of the prior dose have subsided, and • d. Pre-dose vital parameters and forced expiratory volume in one second (FEV1) are in normal range, or if outside of the normal range, are not clinically significant according to the investigator. • 3. Similarly, a third dose (18 mg) will only be administered if: • a. A peak experience (total score of ≥75) has not been achieved following the 12 mg dose, and • b. The 12 mg dose was safe and well-tolerated according to the investigator, and • c. Any PsE of the prior dose have subsided, and • d. Pre-dose vital parameters and forced expiratory volume in one second (FEV1) are in normal range, or if outside of the normal range, are not clinically significant according to the investigator.
The patients will be assessed for a peak psychedelic experience (based on a patient-scored visual analogue scale, the PE scale), sedation, and other endpoints after dosing.
Follow-up visits are planned for Day 1, and Day 7 after the dosing day.
The following criteria must be met by all patients considered for clinical trial participation: • 1. Is female and in the age range between 18 and 45 years (inclusive) at screening. • 2. Has a body mass index (BMI) in the range of 18.5 and 35 kg/m^2 (inclusive) at screening. • 3. Meets the trial criteria for PPD as assessed by a trial psychiatrist or registered psychologist: • a. Diagnosis of Major Depressive Disorder without psychotic features, confirmed by the Mini-International Neuropsychiatric Interview (MINI), with peri-partum onset that began no earlier than gestation and no later than the first 4 weeks postpartum. • b. Has a Montgomery-Åsberg Depression Rating Scale (MADRS) total score of equal to or greater than 28 at screening and pre-dose on Day 0. • 6. […] Patients must have a negative pregnancy test at screening and on the pre-test day (Day−1). • 5. Is willing to delay start of other antidepressant or anxiety medication until after the end of the trial at Day 7 and agrees to keep any psychotherapy unchanged during the trial.

## COc1ccc2[nH]cc(CCN(C)C)c2c1 [5-MeO-DMT]
PPD patient 1
  ECG, safety laboratory analyses, CADSS: unremarkable
  MADRS response (at least 50% improvement) and MADRS remission (total score 10 or less): fulfilled standard criteria
  reported adverse events (mild, resolved spontaneously): cramping left abdominal pain and headache
PPD patient 1, 2 hr
  MADRS Apparent sadness improvement: 5
  MADRS Apparent sadness score: 0
  MADRS Concentration Difficulties improvement: 0
  MADRS Concentration Difficulties score: 0
  MADRS Inability to Feel improvement: 3
  MADRS Inability to Feel score: 0
  MADRS Inner Tension improvement: 5
  MADRS Inner Tension score: 0
  MADRS Lassitude improvement: 3
  MADRS Lassitude score: 0
  MADRS Pessimistic Thoughts improvement: 4
  MADRS Pessimistic Thoughts score: 0
  MADRS Reduced Sleep improvement: 0
  MADRS Reduced Sleep score: 5
  MADRS Reduced appetite improvement: 0
  MADRS Reduced appetite score: 0
  MADRS Reported sadness improvement: 4
  MADRS Reported sadness score: 0
  MADRS Suicidal Thoughts improvement: 0
  MADRS Suicidal Thoughts score: 0
  Total MADRS improvement: 24
  Total MADRS score: 5
PPD patient 1, Day 1
  BPRS Anxiety improvement: 6
  BPRS Anxiety score: 1
  BPRS Blunted affect improvement: 0
  BPRS Blunted affect score: 1
  BPRS Conceptual disorganization improvement: 0
  BPRS Conceptual disorganization score: 1
  BPRS Depressive Mood improvement: 5
  BPRS Depressive Mood score: 1
  BPRS Disorientation improvement: 0
  BPRS Disorientation score: 1
  BPRS Emotional withdrawal improvement: 4
  BPRS Emotional withdrawal score: 1
  BPRS Excitement improvement: 1
  BPRS Excitement score: 1
  BPRS Grandiosity improvement: 0
  BPRS Grandiosity score: 1
  BPRS Guilt feelings improvement: 5
  BPRS Guilt feelings score: 1
  BPRS Hallucinatory behaviour improvement: 0
  BPRS Hallucinatory behaviour score: 1
  BPRS Hostility improvement: 0
  BPRS Hostility score: 1
  BPRS Mannerisms and Posturing improvement: 0
  BPRS Mannerisms and Posturing score: 1
  BPRS Motor retardation improvement: 0
  BPRS Motor retardation score: 1
  BPRS Somatic Concern improvement: 5
  BPRS Somatic Concern score: 1
  BPRS Suspiciousness improvement: 0
  BPRS Suspiciousness score: 1
  BPRS Tension improvement: 5
  BPRS Tension score: 1
  BPRS Uncooperativeness improvement: 0
  BPRS Uncooperativeness score: 1
  BPRS Unusual Thought Content improvement: 0
  BPRS Unusual Thought Content score: 1
  MADRS Apparent sadness improvement: 5
  MADRS Apparent sadness score: 0
  MADRS Concentration Difficulties improvement: 0
  MADRS Concentration Difficulties score: 0
  MADRS Inability to Feel improvement: 3
  MADRS Inability to Feel score: 0
  MADRS Inner Tension improvement: 5
  MADRS Inner Tension score: 0
  MADRS Lassitude improvement: 3
  MADRS Lassitude score: 0
  MADRS Pessimistic Thoughts improvement: 4
  MADRS Pessimistic Thoughts score: 0
  MADRS Reduced Sleep improvement: 5
  MADRS Reduced Sleep score: 0
  MADRS Reduced appetite improvement: 0
  MADRS Reduced appetite score: 0
  MADRS Reported sadness improvement: 4
  MADRS Reported sadness score: 0
  MADRS Suicidal Thoughts improvement: 0
  MADRS Suicidal Thoughts score: 0
  Total MADRS improvement: 29
  Total MADRS score: 0
PPD patient 1, Day 7
  BIMF TOTAL Δ vs Day 0: 13
  BIMF domain Adjustment % Improvement: 20.00%
  BIMF domain Adjustment score: 6
  BIMF domain Adjustment Δ vs Day 0: 1
  BIMF domain Infant Care % Improvement: 0.00%
  BIMF domain Infant Care score: 12
  BIMF domain Infant Care Δ vs Day 0: 0
  BIMF domain Management % Improvement: 18%
  BIMF domain Management score: 33
  BIMF domain Management Δ vs Day 0: 5
  BIMF domain Mother-Child Interaction score: 17
  BIMF domain Mother-Child Interaction Δ vs Day 0: 2
  BIMF domain Psychological Well-being score: 53
  BIMF domain Psychological Well-being Δ vs Day 0: 9
  BIMF domain Self-Care % Improvement: 44%
  BIMF domain Self-Care score: 13
  BIMF domain Self-Care Δ vs Day 0: 4
  BIMF domain Social Support score: 18
  BIMF domain Social Support Δ vs Day 0: 1
  BIMF item 1 (I am a good mother) score: 6
  BIMF item 1 Δ vs Day 0: 0
  BIMF item 2 (I feel rested) score: 2
  BIMF item 2 Δ vs Day 0: 2
  BIMF item 3 (comfortable with the way I've chosen to feed my baby) score: 6
  BIMF item 3 Δ vs Day 0: 0
  BIMF item 4 (My baby and I understand each other) score: 5
  BIMF item 4 Δ vs Day 0: 0
  BIMF item 5 (able to relax and enjoy time with my baby) score: 6
  BIMF item 5 Δ vs Day 0: 1
  BIMF item 6 (people I can trust to care for my baby when I need a break) score: 6
  BIMF item 6 Δ vs Day 0: 0
  BIMF item 7 Δ vs Day 0: 0
  BIMF item 8 (getting enough adult interaction) score: 6
  BIMF item 8 Δ vs Day 0: 0
  BIMF item 9 (getting enough encouragement from other people) score: 6
  BIMF item 9 Δ vs Day 0: 1
  BIMF item 10 (I trust my own feelings (instincts)) score: 6
  BIMF item 10 Δ vs Day 0: 1
  BIMF item 11 (a little time each week to do something for myself) score: 6
  BIMF item 11 Δ vs Day 0: 1
  BIMF item 12 (taking good care of my baby's physical needs) score: 6
  BIMF item 12 Δ vs Day 0: 0
  BIMF item 13 (taking good care of my physical needs) score: 5
  BIMF item 13 Δ vs Day 0: 1
  BIMF item 14 (good decisions about my baby's health and well being) score: 6
  BIMF item 14 Δ vs Day 0: 0
  BIMF item 15 (My baby and I are getting into a routine) score: 6
  BIMF item 15 Δ vs Day 0: 1
  BIMF item 16 (I worry about how other people judge me) score: 5
  BIMF item 16 Δ vs Day 0: 2
  BIMF item 17 (able to take care of my baby and my other responsibilities) score: 5
  BIMF item 17 Δ vs Day 0: 0
  BIMF item 18 (Anxiety or worry often interferes with my mothering ability) score: 5
  BIMF item 18 Δ vs Day 0: 3
  BIMF item 19 (getting better at taking care of my baby) score: 1
  BIMF item 19 Δ vs Day 0: 1
  BIMF item 20 (satisfied with the job I am doing as a new mother) score: 5
  BIMF item 20 Δ vs Day 0: −1
  BPRS Anxiety improvement: 6
  BPRS Anxiety score: 1
  BPRS Blunted affect improvement: 0
  BPRS Blunted affect score: 1
  BPRS Conceptual disorganization improvement: 0
  BPRS Conceptual disorganization score: 1
  BPRS Depressive Mood improvement: 5
  BPRS Depressive Mood score: 1
  BPRS Disorientation improvement: 0
  BPRS Disorientation score: 1
  BPRS Emotional withdrawal improvement: 4
  BPRS Emotional withdrawal score: 1
  BPRS Excitement improvement: 1
  BPRS Excitement score: 1
  BPRS Grandiosity improvement: 0
  BPRS Grandiosity score: 1
  BPRS Guilt feelings improvement: 5
  BPRS Guilt feelings score: 1
  BPRS Hallucinatory behaviour improvement: 0
  BPRS Hallucinatory behaviour score: 1
  BPRS Hostility improvement: 0
  BPRS Hostility score: 1
  BPRS Mannerisms and Posturing improvement: 0
  BPRS Mannerisms and Posturing score: 1
  BPRS Motor retardation improvement: 0
  BPRS Motor retardation score: 1
  BPRS Somatic Concern improvement: 5
  BPRS Somatic Concern score: 1
  BPRS Suspiciousness improvement: 0
  BPRS Suspiciousness score: 1
  BPRS Tension improvement: 5
  BPRS Tension score: 1
  BPRS Uncooperativeness improvement: 0
  BPRS Uncooperativeness score: 1
  BPRS Unusual Thought Content improvement: 0
  BPRS Unusual Thought Content score: 1
  MADRS Apparent sadness improvement: 5
  MADRS Apparent sadness score: 0
  MADRS Concentration Difficulties improvement: 0
  MADRS Concentration Difficulties score: 0
  MADRS Inability to Feel improvement: 3
  MADRS Inability to Feel score: 0
  MADRS Inner Tension improvement: 4
  MADRS Inner Tension score: 1
  MADRS Lassitude improvement: 3
  MADRS Lassitude score: 0
  MADRS Pessimistic Thoughts improvement: 4
  MADRS Pessimistic Thoughts score: 0
  MADRS Reduced Sleep improvement: 5
  MADRS Reduced Sleep score: 0
  MADRS Reduced appetite improvement: 0
  MADRS Reduced appetite score: 0
  MADRS Reported sadness improvement: 4
  MADRS Reported sadness score: 0
  MADRS Suicidal Thoughts improvement: 0
  MADRS Suicidal Thoughts score: 0
  Total MADRS improvement: 28
  Total MADRS score: 1
PPD patient 1, Day 7, from 92 to 105
  BIMF total score improvement: 14%
PPD patient 1, Discharge
  BPRS Anxiety improvement: 6
  BPRS Anxiety score: 1
  BPRS Blunted affect improvement: 0
  BPRS Blunted affect score: 1
  BPRS Conceptual disorganization improvement: 0
  BPRS Conceptual disorganization score: 1
  BPRS Depressive Mood improvement: 5
  BPRS Depressive Mood score: 1
  BPRS Disorientation improvement: 0
  BPRS Disorientation score: 1
  BPRS Emotional withdrawal improvement: 4
  BPRS Emotional withdrawal score: 1
  BPRS Excitement improvement: 1
  BPRS Excitement score: 1
  BPRS Grandiosity improvement: 0
  BPRS Grandiosity score: 1
  BPRS Guilt feelings improvement: 5
  BPRS Guilt feelings score: 1
  BPRS Hallucinatory behaviour improvement: 0
  BPRS Hallucinatory behaviour score: 1
  BPRS Hostility improvement: 0
  BPRS Hostility score: 1
  BPRS Mannerisms and Posturing improvement: 0
  BPRS Mannerisms and Posturing score: 1
  BPRS Motor retardation improvement: 0
  BPRS Motor retardation score: 1
  BPRS Somatic Concern improvement: 5
  BPRS Somatic Concern score: 1
  BPRS Suspiciousness improvement: 0
  BPRS Suspiciousness score: 1
  BPRS Tension improvement: 5
  BPRS Tension score: 1
  BPRS Uncooperativeness improvement: 0
  BPRS Uncooperativeness score: 1
  BPRS Unusual Thought Content improvement: 0
  BPRS Unusual Thought Content score: 1
PPD patient 1, IDR 6 mg then 12 mg
  time to clinical remission after administration: ≤ 2 h
PPD patient 1, nominal dose 6 mg
  PES score (intensity of psychedelic experience): 17.3
PPD patient 1, shortly after administration
  changes in vital parameters: temporary, clinically non-relevant increase in heart rate and blood pressure
PPD patient 1, subsequent dose 12 mg
  PES score (intensity of psychedelic experience): 85.7
PPD patient 2
  ECG, safety laboratory analyses, CADSS: unremarkable
  MADRS response (at least 50% improvement) and MADRS remission (total score 10 or less): fulfilled standard criteria
  reported adverse events (mild, resolved spontaneously): vomiting on Day 0 and headache on Day 5
PPD patient 2, nominal dose 6 mg
  PES score (intensity of psychedelic experience): 1
PPD patient 2, shortly after administration
  changes in vital parameters: temporary, clinically non-relevant increase in heart rate
PPD patient 2, subsequent dose 12 mg
  PES score (intensity of psychedelic experience): 94.7
